Measured values: patent US12233081B2, “Hygromycin a compounds and methods of treating spirochete diseases” (priority 2018, dated 2025)
≈ marks a conversion by molar mass, not a printed value. Where two headings read alike, the source gives them in different places.

Key:
[1] = system: Treponema pallidum; assay: microbroth dilution MIC; type: cell-based
[2] = system: gut microbiome; conditions: mouse, in vivo
[3] = system: gut microbiome; assay: gut microbiome 16S rRNA sequencing of stool of infected, treated mice; conditions: for Bacteroidaceae change in percent relative abundance / Streptococcaceae change in percent relative abundance: 50 mg/kg
[4] = IP 50 mg/kg every 12 hours for 5 days
[5] = oral 50 mg/kg every 12 hours for 5 days
[6] = oral 50 mg/kg every 12 hours for 5 days, listed as Hyg

CC(=O)[C@H]1O[C@@H](Oc2ccc(/C=C(\C)C(=O)N[C@@H]3[C@H](O)[C@@H](O)[C@H]4OCO[C@H]4[C@@H]3O)cc2O)[C@@H](O)[C@@H]1O [Hygromycin A]
MIC [1]: 0.03 µg/mL (≈ 0.0587 µM) | Camobacteriaceae change in percent relative abundance ([2]; C3H, ip, 50 mg/kg, 5 days): −0.001% | Chitinophagaceae change in percent relative abundance ([2]; C3H, ip, 50 mg/kg, 5 days): 0.000% | Christensenellaceae change in percent relative abundance ([2]; C3H, ip, 50 mg/kg, 5 days): 0.000% | Clostridiaceae change in percent relative abundance ([2]; C3H, ip, 50 mg/kg, 5 days): −0.066% | Clostridiales change in percent relative abundance ([2]; C3H, ip, 50 mg/kg, 5 days): −0.099% | Clostridiales family xi. incertae sedis change in percent relative abundance ([2]; C3H, ip, 50 mg/kg, 5 days): −0.047% | Clostridiales family xiii. incertae sedis change in percent relative abundance ([2]; C3H, ip, 50 mg/kg, 5 days): −0.013% | Coriobacteriaceae change in percent relative abundance ([2]; C3H, ip, 50 mg/kg, 5 days): 0.014% | overall disruption to the gut microbiome [2]: considerably less severe | Acholeplasmataceae change in percent relative abundance ([2]; ip, 50 mg/kg): 0.003% | Aerococcaceae change in percent relative abundance ([2]; ip, 50 mg/kg): 0.001% | Anaerolineaceae change in percent relative abundance ([2]; ip, 50 mg/kg): 0.000% | Anaeroplasmataceae change in percent relative abundance ([2]; ip, 50 mg/kg): −0.007% | Anaplasmataceae change in percent relative abundance ([2]; ip, 50 mg/kg): 0.000% | Aspergillaceae change in percent relative abundance ([2]; ip, 50 mg/kg): 0.000% | Asteraceae change in percent relative abundance ([2]; ip, 50 mg/kg): 0.001% | Bacillaceae change in percent relative abundance ([2]; ip, 50 mg/kg): −0.021% | Bacillales change in percent relative abundance ([2]; ip, 50 mg/kg): −0.108% | Bacteroidaceae change in percent relative abundance ([2]; ip, 50 mg/kg): −14.397% | Bifidobacteriaceae change in percent relative abundance ([2]; ip, 50 mg/kg): 0.000% | Candidatus saccharibacteria change in percent relative abundance ([2]; ip, 50 mg/kg): −0.022% | Corynebacteriaceae change in percent relative abundance ([2]; ip, 50 mg/kg): 0.000% | Cytophagaceae change in percent relative abundance ([2]; ip, 50 mg/kg): 0.000% | Deferribacteraceae change in percent relative abundance ([2]; ip, 50 mg/kg): 0.368% | Defluviitaleaceae change in percent relative abundance ([2]; ip, 50 mg/kg): −0.001% | Desulfobacteraceae change in percent relative abundance ([2]; ip, 50 mg/kg): 0.000% | Enterobacteriaceae change in percent relative abundance ([2]; ip, 50 mg/kg): 1.250% | Enterococcaceae change in percent relative abundance ([2]; ip, 50 mg/kg): 0.036% | Erysipelotrichaceae change in percent relative abundance ([2]; ip, 50 mg/kg): 5.307% | Eubacteriaceae change in percent relative abundance ([2]; ip, 50 mg/kg): 0.037% | Fabaceae change in percent relative abundance ([2]; ip, 50 mg/kg): 0.000% | Flavobacteriaceae change in percent relative abundance ([2]; ip, 50 mg/kg): 0.000% | Fusobacteriaceae change in percent relative abundance ([2]; ip, 50 mg/kg): 0.000% | Gammaproteobacteria change in percent relative abundance ([2]; ip, 50 mg/kg): −0.020% | Gloeobacteraceae change in percent relative abundance ([2]; ip, 50 mg/kg): −0.020% | Gracilibacteraceae change in percent relative abundance ([2]; ip, 50 mg/kg): −0.112% | Halomonadaceae change in percent relative abundance ([2]; ip, 50 mg/kg): 0.000% | Hylidae change in percent relative abundance ([2]; ip, 50 mg/kg): 0.000% | Kopriimonadaceae change in percent relative abundance ([2]; ip, 50 mg/kg): 0.000% | Lachnospiraceae change in percent relative abundance ([2]; ip, 50 mg/kg): 1.241% | Lactobacillaceae change in percent relative abundance ([2]; ip, 50 mg/kg): 9.667% | Leuconostocaceae change in percent relative abundance ([2]; ip, 50 mg/kg): −0.001% | Methylobacteriaceae change in percent relative abundance ([2]; ip, 50 mg/kg): 0.000% | Microbacteriaceae change in percent relative abundance ([2]; ip, 50 mg/kg): 0.000% | Mucoraceae change in percent relative abundance ([2]; ip, 50 mg/kg): 0.000% | Nostocaceae change in percent relative abundance ([2]; ip, 50 mg/kg): 0.000% | Onagraceae change in percent relative abundance ([2]; ip, 50 mg/kg): 0.000% | Oscillatoriales change in percent relative abundance ([2]; ip, 50 mg/kg): 0.000% | Oscillospiraceae change in percent relative abundance ([2]; ip, 50 mg/kg): −0.009% | Paenibacillaceae change in percent relative abundance ([2]; ip, 50 mg/kg): −0.001% | Pasteurellaceae change in percent relative abundance ([2]; ip, 50 mg/kg): 0.000% | Pelobacteraceae change in percent relative abundance ([2]; ip, 50 mg/kg): 0.000% | Peptococcaceae change in percent relative abundance ([2]; ip, 50 mg/kg): −0.885% | Peptoniphilaceae change in percent relative abundance ([2]; ip, 50 mg/kg): 0.000% | Peptostreptococcaceae change in percent relative abundance ([2]; ip, 50 mg/kg): −0.194% | Physalacriaceae change in percent relative abundance ([2]; ip, 50 mg/kg): 0.000% | Poaceae change in percent relative abundance ([2]; ip, 50 mg/kg): 0.019% | Polyangiaceae change in percent relative abundance ([2]; ip, 50 mg/kg): 0.000% | Porphyromonadaceae change in percent relative abundance ([2]; ip, 50 mg/kg): −0.221% | Prevotellaceae change in percent relative abundance ([2]; ip, 50 mg/kg): −0.319% | Pseudomonadaceae change in percent relative abundance ([2]; ip, 50 mg/kg): 0.000% | Rhizobiaceae change in percent relative abundance ([2]; ip, 50 mg/kg): 0.000% | Rhodobacteraceae change in percent relative abundance ([2]; ip, 50 mg/kg): 0.000% | Rikenellaceae change in percent relative abundance ([2]; ip, 50 mg/kg): −4.710% | Ruminococcaceae change in percent relative abundance ([2]; ip, 50 mg/kg): 1.486% | Sphingomonadaceae change in percent relative abundance ([2]; ip, 50 mg/kg): 0.000% | Spirochaetaceae change in percent relative abundance ([2]; ip, 50 mg/kg): −0.074% | Spiroplasmataceae change in percent relative abundance ([2]; ip, 50 mg/kg): −0.107% | Staphylococcaceae change in percent relative abundance ([2]; ip, 50 mg/kg): 0.004% | Streptococcaceae change in percent relative abundance ([2]; ip, 50 mg/kg): 2.055% | Thermoanaerobacteraceae change in percent relative abundance ([2]; ip, 50 mg/kg): −0.018% | Veillonellaceae change in percent relative abundance ([2]; ip, 50 mg/kg): 0.000% | Verrucomicrobiaceae change in percent relative abundance ([2]; ip, 50 mg/kg): −0.017% | Xanthomonadaceae change in percent relative abundance ([2]; ip, 50 mg/kg): 0.000% | Acholeplasmataceae change in percent relative abundance ([2]; po, 50 mg/kg): 0.005% | Candidatus saccharibacteria change in percent relative abundance ([2]; po, 50 mg/kg): −0.043% | Brucellaceae change in percent relative abundance [3, 4]: 0.000% | Francisellaceae change in percent relative abundance [3, 4]: −0.001% | Aerococcaceae change in percent relative abundance [3, 5]: 0.000% | Anaerolineaceae change in percent relative abundance [3, 5]: 0.000% | Anaeroplasmataceae change in percent relative abundance [3, 5]: −0.016% | Anaplasmataceae change in percent relative abundance [3, 5]: 0.000% | Aspergillaceae change in percent relative abundance [3, 5]: 0.000% | Asteraceae change in percent relative abundance [3, 5]: 0.000% | Bacillaceae change in percent relative abundance [3, 5]: −0.009% | Bacillales change in percent relative abundance [3, 5]: −0.092% | Bifidobacteriaceae change in percent relative abundance [3, 5]: 0.013% | Brucellaceae change in percent relative abundance [3, 5]: 0.000% | Camobacteriaceae change in percent relative abundance [3, 5]: 0.005% | Chitinophagaceae change in percent relative abundance [3, 5]: 0.000% | Christensenellaceae change in percent relative abundance [3, 5]: 0.000% | Clostridiaceae change in percent relative abundance [3, 5]: −5.257% | Clostridiales change in percent relative abundance [3, 5]: −0.174% | Clostridiales family xi. incertae sedis change in percent relative abundance [3, 5]: −0.032% | Clostridiales family xiii. incertae sedis change in percent relative abundance [3, 5]: −0.007% | Coriobacteriaceae change in percent relative abundance [3, 5]: −0.038% | Corynebacteriaceae change in percent relative abundance [3, 5]: 0.000% | Cytophagaceae change in percent relative abundance [3, 5]: −0.001% | Deferribacteraceae change in percent relative abundance [3, 5]: −1.462% | Defluviitaleaceae change in percent relative abundance [3, 5]: −0.002% | Desulfobacteraceae change in percent relative abundance [3, 5]: −0.001% | Enterobacteriaceae change in percent relative abundance [3, 5]: −0.026% | Enterococcaceae change in percent relative abundance [3, 5]: 6.546% | Erysipelotrichaceae change in percent relative abundance [3, 5]: 1.506% | Eubacteriaceae change in percent relative abundance [3, 5]: −6.405% | Fabaceae change in percent relative abundance [3, 5]: 0.000% | Flavobacteriaceae change in percent relative abundance [3, 5]: −0.001% | Francisellaceae change in percent relative abundance [3, 5]: 0.000% | Fusobacteriaceae change in percent relative abundance [3, 5]: 0.000% | Gammaproteobacteria change in percent relative abundance [3, 5]: −0.025% | Gloeobacteraceae change in percent relative abundance [3, 5]: −0.013% | Gracilibacteraceae change in percent relative abundance [3, 5]: −0.072% | Halomonadaceae change in percent relative abundance [3, 5]: 0.000% | Hylidae change in percent relative abundance [3, 5]: 0.000% | Kopriimonadaceae change in percent relative abundance [3, 5]: 0.000% | Lachnospiraceae change in percent relative abundance [3, 5]: −8.372% | Lactobacillaceae change in percent relative abundance [3, 5]: 22.074% | Leuconostocaceae change in percent relative abundance [3, 5]: 0.000% | Methylobacteriaceae change in percent relative abundance [3, 5]: 0.000% | Microbacteriaceae change in percent relative abundance [3, 5]: 0.000% | Mucoraceae change in percent relative abundance [3, 5]: 0.000% | Nostocaceae change in percent relative abundance [3, 5]: 0.000% | Onagraceae change in percent relative abundance [3, 5]: 0.000% | Oscillatoriales change in percent relative abundance [3, 5]: 0.001% | Oscillospiraceae change in percent relative abundance [3, 5]: −0.009% | Paenibacillaceae change in percent relative abundance [3, 5]: −0.002% | Pasteurellaceae change in percent relative abundance [3, 5]: 0.000% | Pelobacteraceae change in percent relative abundance [3, 5]: 0.000% | Peptococcaceae change in percent relative abundance [3, 5]: −0.835% | Peptoniphilaceae change in percent relative abundance [3, 5]: 0.000% | Peptostreptococcaceae change in percent relative abundance [3, 5]: −0.095% | Physalacriaceae change in percent relative abundance [3, 5]: 0.000% | Poaceae change in percent relative abundance [3, 5]: 0.007% | Polyangiaceae change in percent relative abundance [3, 5]: 0.000% | Porphyromonadaceae change in percent relative abundance [3, 5]: −23.435% | Prevotellaceae change in percent relative abundance [3, 5]: −0.285% | Pseudomonadaceae change in percent relative abundance [3, 5]: 0.000% | Rhizobiaceae change in percent relative abundance [3, 5]: 0.000% | Rhodobacteraceae change in percent relative abundance [3, 5]: 0.000% | Rikenellaceae change in percent relative abundance [3, 5]: −4.391% | Ruminococcaceae change in percent relative abundance [3, 5]: −1.494% | Sphingomonadaceae change in percent relative abundance [3, 5]: 0.000% | Spirochaetaceae change in percent relative abundance [3, 5]: −0.086% | Spiroplasmataceae change in percent relative abundance [3, 5]: −0.093% | Staphylococcaceae change in percent relative abundance [3, 5]: 0.001% | Thermoanaerobacteraceae change in percent relative abundance [3, 5]: −0.010% | Veillonellaceae change in percent relative abundance [3, 5]: 0.002% | Verrucomicrobiaceae change in percent relative abundance [3, 5]: −0.017% | Xanthomonadaceae change in percent relative abundance [3, 5]: 0.000% | increases in Enterococcaceae or Enterobacteriaceae [3, 5]: did not lead to increases | mice that maintained Bacteroidaceae [3, 5]: 1/5 | mice with decreased Bacteroidaceae [3, 5]: 3/5 | mice with increased Bacteroidaceae [3, 5]: 1/5 | Bacteroidaceae change in percent relative abundance [3, 5]: −8.5% | Streptococcaceae change in percent relative abundance [3, 5]: 31.09% | Bacteroidaceae change in percent relative abundance [3, 6]: −8.462% | Streptococcaceae change in percent relative abundance [3, 6]: 31.098%
